According to ChEMBL document CHEMBL3132851, “Achieving improved permeability by hydrogen bond donor modulation in a series of MGAT2 inhibitors” (Medchemcomm, 2013):
Values after ≈ are worked out from the molar mass of the structure shown. One block for each compound: values may come before it.

Experiments:
[1] = (§1) Apparent permeability of the compound from apical to basolateral side in human Caco2 cells; conditions: Caco-2, Papp
[2] = Lipophilicity, log D of the compound at pH 7.4 after 30 mins by shake-flask method; conditions: buffer; for logD at 0.5 h: pH 7.4, logD; for logD: pH 7.4, 0.5 h, 0.5 h
[3] = molecular target: 2-acylglycerol O-acyltransferase 2 (Homo sapiens, UniProt Q3SYC2); test: Inhibition of human MGAT2 by Rapidfire LCMS assay
2-acylglycerol O-acyltransferase 2, sequence (Q3SYC2 whole entry): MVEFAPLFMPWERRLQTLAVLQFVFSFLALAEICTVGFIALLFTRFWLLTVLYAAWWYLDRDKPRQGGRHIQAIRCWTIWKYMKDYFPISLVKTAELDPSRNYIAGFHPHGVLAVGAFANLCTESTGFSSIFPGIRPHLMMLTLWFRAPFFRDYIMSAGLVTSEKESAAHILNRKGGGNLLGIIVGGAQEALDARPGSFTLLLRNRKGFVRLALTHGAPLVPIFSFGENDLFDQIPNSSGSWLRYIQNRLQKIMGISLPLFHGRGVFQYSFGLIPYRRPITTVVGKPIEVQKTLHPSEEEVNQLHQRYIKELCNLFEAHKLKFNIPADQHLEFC

[4] = Volume of distribution at steady state in rat at 3 mg/kg, po and 1 mg/kg, iv; type: ADME, organism-based; conditions: in vivo, read-out: Vdss
[5] = Aqueous solubility of the compound in phosphate buffer at pH 7.4 after 24 hrs by LC-UVMS analysis; type: physicochemical
Cytochrome P450 2C9 = Cytochrome P450 2C9 (Homo sapiens, UniProt P11712); test: Inhibition of CYP2C9 (unknown origin); type: ADME
Cytochrome P450 2C9, sequence (P11712 whole entry): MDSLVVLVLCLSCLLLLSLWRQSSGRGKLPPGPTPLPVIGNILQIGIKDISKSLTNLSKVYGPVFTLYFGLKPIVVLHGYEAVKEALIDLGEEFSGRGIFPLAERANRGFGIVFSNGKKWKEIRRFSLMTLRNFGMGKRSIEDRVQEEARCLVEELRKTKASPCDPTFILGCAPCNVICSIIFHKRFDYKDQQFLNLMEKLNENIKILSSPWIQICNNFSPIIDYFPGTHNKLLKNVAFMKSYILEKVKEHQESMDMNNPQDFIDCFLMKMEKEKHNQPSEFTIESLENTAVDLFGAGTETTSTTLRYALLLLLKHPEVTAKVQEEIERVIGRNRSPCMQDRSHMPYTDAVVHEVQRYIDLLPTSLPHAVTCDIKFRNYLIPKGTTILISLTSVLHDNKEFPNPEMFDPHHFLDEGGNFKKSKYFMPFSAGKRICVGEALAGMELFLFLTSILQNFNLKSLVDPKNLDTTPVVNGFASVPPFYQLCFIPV

[6] = Plasma clearance in rat at 3 mg/kg, po and 1 mg/kg, iv; type: ADME, organism-based
[7] = Bioavailability in rat at 3 mg/kg, po and 1 mg/kg, iv; type: ADME, organism-based; conditions: in vivo
[8] = Half life in rat at 1 mg/kg, iv; type: ADME, organism-based; design: dose 1 mg/kg, route intravenous; conditions: in vivo
[9] = Half life in rat at 3 mg/kg, po; type: ADME, organism-based; design: dose 3 mg/kg, route oral; conditions: in vivo
[10] = Unbound fraction in rat plasma by equilibrium dialysis method; type: ADME, cell-free
Cytochrome P450 3A4 = Cytochrome P450 3A4 (Homo sapiens, UniProt P08684); test: Inhibition of CYP3A4 (unknown origin); type: ADME
Cytochrome P450 3A4, sequence (P08684 whole entry): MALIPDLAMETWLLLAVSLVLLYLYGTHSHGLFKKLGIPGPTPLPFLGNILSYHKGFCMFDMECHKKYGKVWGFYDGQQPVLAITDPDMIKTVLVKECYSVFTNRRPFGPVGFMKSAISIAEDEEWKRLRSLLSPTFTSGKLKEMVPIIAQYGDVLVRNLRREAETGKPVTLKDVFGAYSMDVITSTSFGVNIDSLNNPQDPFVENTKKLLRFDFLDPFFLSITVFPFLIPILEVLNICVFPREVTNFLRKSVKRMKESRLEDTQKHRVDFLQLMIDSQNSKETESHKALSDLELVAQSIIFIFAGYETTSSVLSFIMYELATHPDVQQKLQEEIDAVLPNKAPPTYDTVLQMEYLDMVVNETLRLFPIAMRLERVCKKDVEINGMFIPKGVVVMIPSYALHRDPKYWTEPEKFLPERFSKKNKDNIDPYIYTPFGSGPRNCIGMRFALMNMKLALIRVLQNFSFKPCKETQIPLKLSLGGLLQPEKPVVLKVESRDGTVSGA

Cytochrome P450 2D6 = Cytochrome P450 2D6 (Homo sapiens, UniProt P10635); test: Inhibition of CYP2D6 (unknown origin); type: ADME
Cytochrome P450 2D6, sequence (P10635 whole entry): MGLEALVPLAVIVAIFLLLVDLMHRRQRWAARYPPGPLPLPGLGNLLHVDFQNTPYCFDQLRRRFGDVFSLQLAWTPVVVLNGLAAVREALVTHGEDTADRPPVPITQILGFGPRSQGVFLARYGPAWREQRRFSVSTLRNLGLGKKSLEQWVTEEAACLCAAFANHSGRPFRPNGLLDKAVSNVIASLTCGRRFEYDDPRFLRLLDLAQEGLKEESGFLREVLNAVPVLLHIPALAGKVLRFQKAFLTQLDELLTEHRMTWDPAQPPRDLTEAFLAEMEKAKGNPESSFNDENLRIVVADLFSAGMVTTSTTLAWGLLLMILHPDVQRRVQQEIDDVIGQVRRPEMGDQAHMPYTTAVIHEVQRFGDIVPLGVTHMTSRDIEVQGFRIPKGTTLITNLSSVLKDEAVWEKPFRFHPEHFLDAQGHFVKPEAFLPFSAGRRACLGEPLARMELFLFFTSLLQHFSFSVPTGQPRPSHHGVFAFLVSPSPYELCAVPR

[11] = Plasma clearance in mouse at 50 mg/kg, po and 1 mg/kg, iv; type: ADME, organism-based
[12] = Bioavailability in mouse at 50 mg/kg, po and 1 mg/kg, iv; type: ADME, organism-based; conditions: in vivo
[13] = Volume of distribution at steady state in mouse at 50 mg/kg, po and 1 mg/kg, iv; type: ADME, organism-based; conditions: in vivo, read-out: Vdss
[14] = Half life in mouse at 1 mg/kg, iv; type: ADME, organism-based; design: dose 1 mg/kg, route intravenous; conditions: in vivo
Cytochrome P450 2C19 = Cytochrome P450 2C19 (Homo sapiens, UniProt P33261); test: Inhibition of CYP2C19 (unknown origin); type: ADME
Cytochrome P450 2C19, sequence (P33261 whole entry): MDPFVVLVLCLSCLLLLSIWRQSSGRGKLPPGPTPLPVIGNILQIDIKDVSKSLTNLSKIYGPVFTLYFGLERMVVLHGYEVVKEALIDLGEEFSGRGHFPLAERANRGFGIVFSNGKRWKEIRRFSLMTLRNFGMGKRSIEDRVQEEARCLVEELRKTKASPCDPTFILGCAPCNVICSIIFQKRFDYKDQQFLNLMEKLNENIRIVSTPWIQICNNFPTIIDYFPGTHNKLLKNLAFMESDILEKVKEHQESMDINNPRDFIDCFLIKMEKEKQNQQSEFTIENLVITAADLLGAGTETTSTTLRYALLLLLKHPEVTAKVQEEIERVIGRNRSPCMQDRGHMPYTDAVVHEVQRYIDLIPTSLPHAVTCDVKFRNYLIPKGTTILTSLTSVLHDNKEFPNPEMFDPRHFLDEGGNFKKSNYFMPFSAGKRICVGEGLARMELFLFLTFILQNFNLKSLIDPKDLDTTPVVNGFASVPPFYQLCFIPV

Cytochrome P450 1A2 = molecular target: T1, Cytochrome P450 1A2 (Homo sapiens, UniProt P05177); test: Inhibition of CYP1A2 (unknown origin); type: ADME
T1 sequence (P05177 whole entry): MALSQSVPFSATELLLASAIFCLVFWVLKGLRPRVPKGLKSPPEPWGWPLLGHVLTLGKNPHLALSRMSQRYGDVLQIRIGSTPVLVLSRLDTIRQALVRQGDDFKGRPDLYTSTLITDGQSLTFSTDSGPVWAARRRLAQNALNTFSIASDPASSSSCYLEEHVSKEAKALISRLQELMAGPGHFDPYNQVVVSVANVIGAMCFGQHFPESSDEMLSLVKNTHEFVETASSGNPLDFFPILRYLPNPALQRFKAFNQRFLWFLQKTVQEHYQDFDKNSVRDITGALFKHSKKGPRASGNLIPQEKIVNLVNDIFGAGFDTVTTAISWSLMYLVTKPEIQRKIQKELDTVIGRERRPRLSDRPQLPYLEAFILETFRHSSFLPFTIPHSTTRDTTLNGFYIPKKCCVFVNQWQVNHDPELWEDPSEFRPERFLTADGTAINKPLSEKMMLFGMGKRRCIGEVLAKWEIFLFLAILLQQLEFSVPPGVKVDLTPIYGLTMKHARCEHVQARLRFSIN

[15] = Unbound fraction in mouse plasma by equilibrium dialysis method; type: ADME, cell-free
[16] = Half life in mouse at 50 mg/kg, po; type: ADME, organism-based; design: dose 50 mg/kg, route oral; conditions: in vivo
[17] = Unbound fraction in human plasma by equilibrium dialysis method; type: ADME, cell-free
Caco-2 = test: as §1; conditions: caco-2

Structure (SMILES): COc1c(S(=O)(=O)Nc2ccc(C(F)(F)F)cc2)ccc2c1C(=O)NC(C)(C)C(=O)N2
Papp A→B [1]: 7 ×10⁻⁶ cm/s
logD at 0.5 h [2]: 1.9
IC50 [3]: > 100000 nM

Structure (SMILES): COc1cc2c(cc1S(=O)(=O)Nc1ccc(C(F)(F)F)cc1)C(=O)NC(C)(C)C(=O)N2
Papp A→B [1]: 1 ×10⁻⁶ cm/s
logD at 0.5 h [2]: 2.8
IC50 [3]: 7610 nM

Structure (SMILES): COc1cc(S(=O)(=O)Nc2ccc(C(F)(F)F)cc2)cc2c1NC(=O)C(C)(C)NC2=O
Papp A→B [1]: 12 ×10⁻⁶ cm/s
logD at 0.5 h [2]: 2.6
IC50 [3]: 109 nM

Structure (SMILES): Cc1c(S(=O)(=O)Nc2ccc(C(F)(F)F)cc2)ccc2c1C(=O)NC(C)(C)C(=O)N2
Papp A→B [1]: 9 ×10⁻⁶ cm/s
IC50 [3]: 13600 nM

Structure (SMILES): Cc1cc2c(cc1S(=O)(=O)Nc1ccc(C(F)(F)F)cc1)C(=O)NC(C)(C)C(=O)N2
IC50 [3]: 13400 nM

Structure (SMILES): Cc1cc(S(=O)(=O)Nc2ccc(C(F)(F)F)cc2)cc2c1NC(=O)C(C)(C)NC2=O
Papp A→B [1]: 7 ×10⁻⁶ cm/s
logD at 0.5 h [2]: 2.6
IC50 [3]: 52 nM

Structure (SMILES): CC1(C)NC(=O)c2cc(S(=O)(=O)Nc3ccc(C(F)(F)F)cc3)ncc2NC1=O
Papp A→B [1]: 1 ×10⁻⁶ cm/s
logD at 0.5 h [2]: 1.6
IC50 [3]: 10500 nM

Structure (SMILES): CC1(C)NC(=O)c2cc(S(=O)(=O)Nc3ccc(C(F)(F)F)cc3)cnc2NC1=O
Papp A→B [1]: 10 ×10⁻⁶ cm/s
logD at 0.5 h [2]: 1.8
IC50 [3]: > 66000 nM

Structure (SMILES): CC1(C)NC(=O)c2c(ccc(S(=O)(=O)Nc3ccc(C(F)(F)F)cc3)c2F)NC1=O
Papp A→B [1]: 4 ×10⁻⁶ cm/s
logD at 0.5 h [2]: 2.4
IC50 [3]: 40400 nM

Structure (SMILES): CC1(C)NC(=O)c2cc(S(=O)(=O)Nc3ccc(C(F)(F)F)cc3)cc(F)c2NC1=O
Papp A→B [1]: 14 ×10⁻⁶ cm/s
logD at 0.5 h [2]: 2.3
IC50 [3]: 1950 nM

Structure (SMILES): CC1(C)NC(=O)c2cc(S(=O)(=O)Nc3ccc(C(F)(F)F)cc3)c(F)cc2NC1=O
IC50 [3]: 1490 nM

Structure (SMILES): CC1(C)NC(=O)c2cc(S(=O)(=O)Nc3ccc(C(F)(F)F)cc3)ccc2NC1=O
Papp A→B [1]: 6 ×10⁻⁶ cm/s
logD at 0.5 h [2]: 2.6
IC50 [3]: 911 nM

The next lines start with the values.

Papp A→B [1]: 8 ×10⁻⁶ cm/s
logD at 0.5 h [2]: 1.7
Structure (SMILES): CC[C@]1(C)NC(=O)c2cc(S(=O)(=O)Nc3ccc(F)cc3F)ccc2NC1=O

Papp A→B [1]: 9 ×10⁻⁶ cm/s
logD at 0.5 h [2]: 1.7
IC50 [3]: 12 nM
Structure (SMILES): CC[C@]1(C)NC(=O)c2cc(S(=O)(=O)Nc3ccc(C(F)(F)F)cc3F)ccc2NC1=O

Papp A→B [1]: 5 ×10⁻⁶ cm/s
logD at 0.5 h [2]: 1.3
IC50 [3]: 58 nM
Structure (SMILES): CC1(C)NC(=O)c2cc(S(=O)(=O)Nc3ccc(F)cc3F)ccc2NC1=O

Papp A→B [1]: 10 ×10⁻⁶ cm/s
logD at 0.5 h [2]: 1.4
IC50 [3]: 16 nM
Structure (SMILES): Cc1cc(S(=O)(=O)Nc2ccc(F)cc2F)cc2c1NC(=O)C(C)(C)NC2=O

Papp A→B [1]: 3 ×10⁻⁶ cm/s
IC50 [3]: 405 nM
Structure (SMILES): CC1(C)NC(=O)c2cc(S(=O)(=O)Nc3ccc(F)cc3F)cc(C#N)c2NC1=O

Papp A→B [1]: 46 ×10⁻⁶ cm/s
logD at 0.5 h [2]: 1.9
IC50 [3]: 30 nM
Structure (SMILES): CC1(C)NC(=O)c2cc(S(=O)(=O)Nc3ccc(F)cc3F)cc(C(F)(F)F)c2NC1=O

Papp A→B [1]: 35 ×10⁻⁶ cm/s
Vd [4]: 0.4 L/kg
solubility at 24 h [5]: 150 µM (≈ 66.6 µg/mL)
IC50 (Cytochrome P450 2C9): > 30000 nM
clearance [6]: 4.1 mL/min/kg
bioavailability [7]: 69%
half-life [8]: 1.3 h
half-life [9]: 2.4 h
fraction unbound [10]: 0.03
logD at 0.5 h [2]: 1.9
IC50 (Cytochrome P450 3A4): > 30000 nM
IC50 (Cytochrome P450 2D6): > 30000 nM
clearance [11]: 29 mL/min/kg
bioavailability [12]: 74%
Vd [13]: 0.5 L/kg
half-life [14]: 0.2 h
IC50 (Cytochrome P450 2C19): 27000 nM
IC50 [3]: 9 nM
IC50 (Cytochrome P450 1A2): > 30000 nM
fraction unbound [15]: 0.037
half-life [16]: 1.2 h
fraction unbound [17]: 0.017
Structure (SMILES): CCC1(C)NC(=O)c2cc(S(=O)(=O)Nc3ccc(F)cc3F)cc(Cl)c2NC1=O (stereo not drawn)

Papp A→B [1]: 29 ×10⁻⁶ cm/s
logD at 0.5 h [2]: 1.8
IC50 [3]: 12 nM
Structure (SMILES): CCC1(C)NC(=O)c2cc(S(=O)(=O)Nc3ccc(C(F)(F)F)cc3F)cc(Cl)c2NC1=O (stereo not drawn)

Papp A→B [1]: 58 ×10⁻⁶ cm/s
logD at 0.5 h [2]: 3
IC50 [3]: 7 nM
Structure (SMILES): CCC1(C)NC(=O)c2cc(S(=O)(=O)Nc3ccc(C(F)(F)F)cc3OC)cc(Cl)c2NC1=O (stereo not drawn)

Papp A→B [1]: 22 ×10⁻⁶ cm/s
logD at 0.5 h [2]: 1.8
IC50 [3]: 10 nM
Structure (SMILES): CCC1(C)NC(=O)c2cc(S(=O)(=O)Nc3ccc(F)cc3F)cc(OC)c2NC1=O (racemic)

Papp A→B [1]: 24 ×10⁻⁶ cm/s
logD at 0.5 h [2]: 2.1
IC50 [3]: 4 nM
Structure (SMILES): CCc1cc(S(=O)(=O)Nc2ccc(F)cc2F)cc2c1NC(=O)C(C)(CC)NC2=O (racemic)

Papp (Caco-2): 9 ×10⁻⁶ cm/s
logD [2]: 6.5
IC50 [3]: 7 nM
Structure (SMILES): CCC1(C)NC(=O)c2cc(S(=O)(=O)Nc3ccc(F)cc3F)cc(C)c2NC1=O (single isomer, unassigned)

Papp A→B [1]: 11 ×10⁻⁶ cm/s
logD at 0.5 h [2]: 0.6
IC50 [3]: 117 nM
Structure (SMILES): CCC1(C)NC(=O)c2cc(S(=O)(=O)Nc3ccc(C)cc3C#N)cc(Cl)c2NC1=O (single isomer, unassigned)

Papp (Caco-2): 14 ×10⁻⁶ cm/s
logD [2]: 0.4
IC50 [3]: 23 nM
Structure (SMILES): CCC1(C)NC(=O)c2cc(S(=O)(=O)Nc3ccc(C)cc3C#N)cc(Cl)c2NC1=O (single isomer, unassigned; enantiomer 1)

Papp A→B [1]: 14 ×10⁻⁶ cm/s
logD at 0.5 h [2]: 5.4
IC50 [3]: 62 nM
Structure (SMILES): CCC1(C)NC(=O)c2cc(S(=O)(=O)Nc3ccc(F)cc3F)cc(C)c2NC1=O (single isomer, unassigned; enantiomer 2)
